Source: patent US20070128217A1 (priority 2003, published 2007)

Key:
[1] = system: rabbit serum obtained by immunizing a rabbit with the SARS-CoV strain Frankfurt 1; assay type: binding; set-up: Binding of a rabbit serum to linear peptides / Binding of a rabbit serum to looped peptides / Rabbit serum linear peptides / Rabbit serum looped peptides / Binding of a rabbit serum to linear peptides of protein N of SARS-CoV Urbani (Rabbit serum linear peptides) / Binding of a rabbit serum to looped/cyclic peptides of protein N of SARS-CoV Urbani (Rabbit serum looped peptides): unit not given here
[2] = system: recombinant human anti-SARS-CoV antibody 03-018; assay type: binding; set-up: Binding of antibody 03-018 to linear peptides of the N protein of SARS-CoV Urbani / Binding of antibody 03-018 to looped/cyclic peptides of the N protein of SARS-CoV Urbani: unit not given here
[3] = system: control sera (pooled serum of ten healthy LUMC hospital workers; commercial negative donor pooled serum from the Dutch bloodbank); assay type: binding, human; set-up: Binding of Control serum LUMC to linear peptides / Binding of Control serum Blood-bank to linear peptides / Binding of Control serum LUMC to looped peptides / Binding of Control Serum Blood-Bank to Looped peptides / Binding of Control serum LUMC to linear peptides of the protein M of SARS-CoV Urbani / Binding of Control serum Blood-bank to linear peptides of the protein M of SARS-CoV Urbani / Binding of Control serum LUMC to looped peptides of the protein M of SARS-CoV Urbani / Binding of Control Serum Blood-Bank to Looped peptides of the protein M of SARS-CoV Urbani: unit not given here
[4] = system: antibodies in sera from SARS patients (sera 1a, 1b, 2, 6, 37, 62, London, SARS-yellow, SARS-green); assay type: binding, human; set-up: Binding of serum 6 to linear peptides of protein X1 of SARS-CoV Urbani / Binding of serum 37 to linear peptides of protein X1 of SARS-CoV Urbani / Binding of serum 6 to looped/cyclic peptide (PEPSCAN-ELISA) / Binding of serum 37 to looped/cyclic peptide (PEPSCAN-ELISA) / Binding of serum 37 to looped/cyclic peptides of protein X1 of SARS-CoV Urbani / Binding of serum 6 to linear peptides of protein X2 / Binding of serum 37 to linear peptides of protein X2 / Binding of serum 37 to looped/cyclic peptides of protein X2 of SARS-CoV Urbani / Binding of serum 6 to linear peptides of protein M of SARS-CoV Urbani / Binding of serum 37 to linear peptides of protein M of SARS-CoV Urbani / Binding of serum 6 to looped/cyclic peptides of protein M of SARS-CoV Urbani / Binding of serum 37 to looped/cyclic peptides of protein M of SARS-CoV Urbani / Binding of serum 6 to linear peptides of protein X3 of SARS-CoV Urbani / Binding of serum 37 to linear peptides of protein X3 of SARS-CoV Urbani / Binding of serum 37 to looped/cyclic peptides of protein X3 of SARS-CoV Urbani / Binding of serum 6 to linear peptides of protein X4 of SARS-CoV Urbani / Binding of serum 37 to linear peptides of protein X4 of SARS-CoV Urbani / Binding of serum 37 to looped/cyclic peptides of protein X4 of SARS-CoV Urbani / Binding of serum 6 to linear peptides of protein X5 of SARS-CoV Urbani / Binding of serum 37 to linear peptides of protein X5 of SARS-CoV Urbani / Binding of serum 37 to looped/cyclic peptides of protein X5 of SARS-CoV Urbani / Binding of serum 6 to linear peptides of protein N of SARS-CoV Urbani / Binding of serum 37 to linear peptides of protein N of SARS-CoV Urbani / Binding of serum 6 to linear peptide (PEPSCAN-ELISA) / Binding of serum 1a to looped/cyclic peptides of protein N of SARS-CoV Urbani / Binding of serum 1b to looped/cyclic peptides of protein N of SARS-CoV Urbani / Binding of serum 2 to looped/cyclic peptides of protein N of SARS-CoV Urbani / Binding of serum 6 to looped/cyclic peptides of protein N of SARS-CoV Urbani / Binding of serum 37 to looped/cyclic peptides of protein N of SARS-CoV Urbani / Binding of serum 62 to looped/cyclic peptides of protein N of SARS-CoV Urbani / Binding of serum London to looped/cyclic peptides of protein N of SARS-CoV Urbani / Binding of serum SARS-green to looped/cyclic peptides of protein N of SARS-CoV Urbani: unit not given here

| Sequence | Binding of a rabbit serum to linear peptides of protein N of SARS-CoV Urbani (Rabbit serum linear peptides) [1] | Binding of a rabbit serum to looped/cyclic peptides of protein N of SARS-CoV Urbani (Rabbit serum looped peptides) [1] | Binding of antibody 03-018 to linear peptides of the N protein of SARS-CoV Urbani [2] | Binding of antibody 03-018 to looped/cyclic peptides of the N protein of SARS-CoV Urbani [2] | Binding of serum 1a to linear peptides of protein N of SARS-CoV Urbani [4] | Binding of serum 1a to looped/cyclic peptides of protein N of SARS-CoV Urbani [4] | Binding of serum 1b to linear peptides of protein N of SARS-CoV Urbani [4] | Binding of serum 1b to looped/cyclic peptides of protein N of SARS-CoV Urbani [4] | Binding of serum 2 to linear peptides of protein N of SARS-CoV Urbani [4] | Binding of serum 2 to looped/cyclic peptides of protein N of SARS-CoV Urbani [4] | Binding of serum 6 to linear peptides of protein N of SARS-CoV Urbani [4] | Binding of serum 6 to looped/cyclic peptides of protein N of SARS-CoV Urbani [4] | Binding of serum 37 to linear peptides of protein N of SARS-CoV Urbani [4] | Binding of serum 37 to looped/cyclic peptides of protein N of SARS-CoV Urbani [4] | Binding of serum 62 to linear peptides of protein N of SARS-CoV Urbani [4] | Binding of serum 62 to looped/cyclic peptides of protein N of SARS-CoV Urbani [4] | Binding of serum London to linear peptides of protein N of SARS-CoV Urbani [4] | Binding of serum London to looped/cyclic peptides of protein N of SARS-CoV Urbani [4] | Binding of serum SARS-green to linear peptides of protein N of SARS-CoV Urbani [4] | Binding of serum SARS-green to looped/cyclic peptides of protein N of SARS-CoV Urbani [4] | further results |
| --- | --- | --- | --- | --- | --- | --- | --- | --- | --- | --- | --- | --- | --- | --- | --- | --- | --- | --- | --- | --- | --- |
| TFGGPTDSTDNNQNG | 0.1 | 0.1 | 0.1 | 0.2 | 0.3 | 0.3 | 0.1 | 0.2 | 0.2 | 0.3 | 0.2 | 0.2 | 0.8 | 0.4 | 0.6 | 0.3 | 0.6 | 0.3 | 0.5 | 0.5 | Binding of Control Serum Blood-Bank to Looped peptides [3]: 0.5; Binding of Control serum Blood-bank to linear peptides [3]: 0.8; Binding of Control serum LUMC to linear peptides [3]: 0.7; Binding of Control serum LUMC to looped peptides [3]: 0.5; Binding of serum SARS-yellow to linear peptides of protein N of SARS-CoV Urbani [4]: 0.5; Binding of serum SARS-yellow to looped/cyclic peptides of protein N of SARS-CoV Urbani [4]: 0.1 |
| TFPPTEPKKDKKKKT | 0.2 | 0.3 | 0.1 | 0.2 | 0.2 | 0.2 | 0.1 | 0.1 | 0.9 | 0.3 | 0.3 | 0.1 | 0.8 | 0.4 | 0.8 | 0.4 | 0.5 | 0.3 | 0.3 | 0.1 | Control Serum Blood-Bank Looped peptides [3]: 0.5; Control serum Blood-bank linear peptides [3]: 0.6; Control serum LUMC linear peptides [3]: 0.7; Control serum LUMC looped peptides [3]: 0.4; Binding of serum SARS-yellow to linear peptides of protein N of SARS-CoV Urbani [4]: 0.9; Binding of serum SARS-yellow to looped/cyclic peptides of protein N of SARS-CoV Urbani [4]: 0.3 |
